# Laboratory results from paper PMC3090445 (Journal of the American Chemical Society, 2008).
# How the values were obtained:
# [1] = molecular target: HDAC1 (Homo sapiens, UniProt Q13547); format: biochemical
# [2] = system: transformed and non-transformed human- and murine-derived cell lines; details: transformed vs non-transformed human- and murine-derived cell lines; cited from earlier work
# Chain of HDAC1 (Q13547 whole entry): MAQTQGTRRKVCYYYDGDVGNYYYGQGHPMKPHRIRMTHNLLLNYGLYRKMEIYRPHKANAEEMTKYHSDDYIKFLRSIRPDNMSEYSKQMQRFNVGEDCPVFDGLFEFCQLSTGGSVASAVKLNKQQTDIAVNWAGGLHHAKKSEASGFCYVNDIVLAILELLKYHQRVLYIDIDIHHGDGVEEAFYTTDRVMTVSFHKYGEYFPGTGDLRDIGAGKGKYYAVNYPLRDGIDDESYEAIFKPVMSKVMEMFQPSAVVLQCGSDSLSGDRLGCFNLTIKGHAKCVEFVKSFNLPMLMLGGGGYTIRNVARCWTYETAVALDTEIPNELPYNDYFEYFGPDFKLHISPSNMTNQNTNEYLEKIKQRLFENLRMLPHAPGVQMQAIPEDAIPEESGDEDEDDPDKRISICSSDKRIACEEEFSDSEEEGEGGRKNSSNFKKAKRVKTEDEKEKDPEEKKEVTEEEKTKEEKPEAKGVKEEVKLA
Compound,Ki [1] [nM],differential growth inhibition [2]
C/C=C1\NC(=O)[C@H]2CSSCC/C=C/[C@H](CC(=O)N[C@H](C(C)C)C(=O)N2)OC(=O)[C@H](C(C)C)NC1=O [FK228],0.12,
"CCCCCCCC(=O)SCC/C=C/[C@@H]1CC(=O)NCc2nc(cs2)C2=N[C@@](C)(CS2)C(=O)N[C@@H](C(C)C)C(=O)O1 [largazole (1), largazole]",,two- to ten-fold
